Data taken from patent US20250152585A1, “PHARMACEUTICAL COMPOUND” (Duke Street Bio Limited, priority 2022, published 2025).

Key:
[1] = biological target: T1, N-terminally FLAG-tagged PARP2 (amino acids 1-583) (Homo sapiens, UniProt Q9UGN5); test: PARP2 probe displacement HTRF assay; type: binding; conditions: binned Kd, probe displacement HTRF
T1 construct: N-terminally FLAG-tagged PARP2 (amino acids 1-583)
Experimental: Data analysis was performed identical as for PARP1.

[2] = biological target: T2, full length N-terminally FLAG-tagged PARP1 (Homo sapiens, UniProt P09874); test: PARP1 probe displacement HTRF assay; conditions: probe displacement HTRF; for Selectivity: PARP1 over PARP2, ratio Kd (PARP2)/Kd (PARP1); for Kd: read-out: PARP1 HTRF, binned Kd
[3] = biological target: T2, full length N-terminally FLAG-tagged PARP1; test: PARP1 biochemical DELFIA assay (auto-PARylation); design: recombinant full length human N-terminally FLAG-tagged PARP1; conditions: binned IC50, biochemical auto-PARylation assay

T2 sequence (P09874 whole entry): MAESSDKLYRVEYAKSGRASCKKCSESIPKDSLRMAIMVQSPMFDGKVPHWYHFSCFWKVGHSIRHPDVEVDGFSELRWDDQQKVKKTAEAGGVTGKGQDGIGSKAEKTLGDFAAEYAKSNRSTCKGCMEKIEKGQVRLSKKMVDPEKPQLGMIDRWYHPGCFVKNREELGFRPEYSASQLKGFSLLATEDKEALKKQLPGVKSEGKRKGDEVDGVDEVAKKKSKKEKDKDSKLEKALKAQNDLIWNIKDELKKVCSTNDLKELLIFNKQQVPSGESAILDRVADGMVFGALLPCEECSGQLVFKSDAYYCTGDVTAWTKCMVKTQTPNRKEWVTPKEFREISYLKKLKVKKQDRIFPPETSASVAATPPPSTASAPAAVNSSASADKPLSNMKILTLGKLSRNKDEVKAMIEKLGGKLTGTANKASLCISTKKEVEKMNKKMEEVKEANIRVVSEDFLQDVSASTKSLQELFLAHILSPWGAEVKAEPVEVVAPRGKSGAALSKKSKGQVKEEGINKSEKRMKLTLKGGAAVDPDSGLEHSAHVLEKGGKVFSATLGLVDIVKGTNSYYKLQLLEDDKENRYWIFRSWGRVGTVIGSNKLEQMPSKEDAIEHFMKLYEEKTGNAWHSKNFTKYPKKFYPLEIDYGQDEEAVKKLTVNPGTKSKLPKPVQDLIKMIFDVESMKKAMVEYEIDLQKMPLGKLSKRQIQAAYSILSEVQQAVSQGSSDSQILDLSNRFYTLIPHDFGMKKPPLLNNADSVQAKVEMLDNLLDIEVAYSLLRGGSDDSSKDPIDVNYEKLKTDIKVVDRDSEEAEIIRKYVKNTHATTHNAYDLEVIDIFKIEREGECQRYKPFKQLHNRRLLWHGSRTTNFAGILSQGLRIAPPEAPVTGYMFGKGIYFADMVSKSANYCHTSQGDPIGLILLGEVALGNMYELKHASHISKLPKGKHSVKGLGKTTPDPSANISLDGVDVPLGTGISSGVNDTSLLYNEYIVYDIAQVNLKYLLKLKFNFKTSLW
T1 sequence (Q9UGN5 whole entry, the tested form may be a part): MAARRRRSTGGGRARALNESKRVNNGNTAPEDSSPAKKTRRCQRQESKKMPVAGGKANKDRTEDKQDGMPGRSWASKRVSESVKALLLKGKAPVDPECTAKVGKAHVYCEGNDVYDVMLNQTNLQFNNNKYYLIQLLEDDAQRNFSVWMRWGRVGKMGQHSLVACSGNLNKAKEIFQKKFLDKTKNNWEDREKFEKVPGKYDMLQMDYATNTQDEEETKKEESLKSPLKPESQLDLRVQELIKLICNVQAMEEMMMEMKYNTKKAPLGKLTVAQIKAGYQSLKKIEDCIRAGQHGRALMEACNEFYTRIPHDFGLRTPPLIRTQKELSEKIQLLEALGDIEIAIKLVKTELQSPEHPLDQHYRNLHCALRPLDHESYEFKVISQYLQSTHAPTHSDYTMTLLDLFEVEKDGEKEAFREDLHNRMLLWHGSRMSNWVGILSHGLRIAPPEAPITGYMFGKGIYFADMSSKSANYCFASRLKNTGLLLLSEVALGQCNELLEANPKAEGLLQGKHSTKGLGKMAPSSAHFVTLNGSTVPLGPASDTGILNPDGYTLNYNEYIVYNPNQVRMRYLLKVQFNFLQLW

SMILES | Kd [1] | Selectivity [2] | Kd [2] | IC50 [3]
CNC(=O)c1ccc(N2CCC(N3CCC(c4cc5cccc(OC)c5c(=O)[nH]4)C3)CC2)cn1 (single isomer, unassigned) [Compound 249b] | > 10000 nM | + (+ indicates a value of 10 to less than 50) | 100 to 1000 nM | 100 to 1000 nM
CS(=O)(=O)Nc1ccc(N2CCC(N3CCC(c4nc5ccccc5c(=O)[nH]4)C3)CC2)cc1 (single isomer, unassigned) [Compound 250a] | 1000 to 10000 nM | − (− indicates a value of less than 10) | 100 to 1000 nM | 100 to 1000 nM
CS(=O)(=O)Nc1ccc(N2CCC(N3CCC(c4nc5ccccc5c(=O)[nH]4)C3)CC2)cc1 (single isomer, unassigned) [Compound 250b] | 100 to 1000 nM | + (+ indicates a value of 10 to less than 50) | 10 to 100 nM | 10 to 100 nM
CS(=O)(=O)Nc1ccc(N2CCC(N3CCC(c4cc5ccccc5c(=O)[nH]4)C3)CC2)cc1 (single isomer, unassigned) [Compound 251a] | 1000 to 10000 nM | − (− indicates a value of less than 10) | 100 to 1000 nM | 100 to 1000 nM
CS(=O)(=O)Nc1ccc(N2CCC(N3CCC(c4cc5ccccc5c(=O)[nH]4)C3)CC2)cc1 (single isomer, unassigned) [Compound 251b] | 100 to 1000 nM | + (+ indicates a value of 10 to less than 50) | 10 to 100 nM | 10 to 100 nM
CS(=O)(=O)Nc1ccc(N2CCC(N3CCC(c4cc5ccccc5c(=O)[nH]4)C3)CC2)cn1 (single isomer, unassigned) [Compound 252a] | 1000 to 10000 nM | − (− indicates a value of less than 10) | 100 to 1000 nM | 100 to 1000 nM
CS(=O)(=O)Nc1ccc(N2CCC(N3CCC(c4cc5ccccc5c(=O)[nH]4)C3)CC2)cn1 (single isomer, unassigned) [Compound 252b] | 100 to 1000 nM | + (+ indicates a value of 10 to less than 50) | 10 to 100 nM | 10 to 100 nM
CCCc1ccc(C2CCN(C3CCN(c4ccc(C(=O)NC)nc4)CC3)C2)[nH]c1=O (single isomer, unassigned) [Compound 261a] | > 10000 nM | − (− indicates a value of less than 10) | 1000 to 10000 nM | 100 to 1000 nM
CCCc1ccc(C2CCN(C3CCN(c4ccc(C(=O)NC)nc4)CC3)C2)[nH]c1=O (single isomer, unassigned) [Compound 261b] | 1000 to 10000 nM | +++ (+++ indicate a value of at least 100) | < 10 nM | < 10 nM
CC(=O)Nc1ccc(N2CCC(N3CCC(c4nc5ccccc5c(=O)[nH]4)C3)CC2)cn1 (single isomer, unassigned) [Compound 262a] | 1000 to 10000 nM | − (− indicates a value of less than 10) | 1000 to 10000 nM | 100 to 1000 nM
CC(=O)Nc1ccc(N2CCC(N3CCC(c4nc5ccccc5c(=O)[nH]4)C3)CC2)cn1 (single isomer, unassigned) [Compound 262b] | 1000 to 10000 nM | + (+ indicates a value of 10 to less than 50) | 100 to 1000 nM | 100 to 1000 nM
CNC(=O)c1ncc(N2CCC(N3CCC(c4cc5ccc(F)cc5c(=O)[nH]4)C3)CC2)c(C)n1 (single isomer, unassigned) [Compound 265a] | 1000 to 10000 nM | +++ (+++ indicate a value of at least 100) | < 10 nM | < 10 nM
CNC(=O)c1ncc(N2CCC(N3CCC(c4cc5ccc(F)cc5c(=O)[nH]4)C3)CC2)c(C)n1 (single isomer, unassigned) [Compound 265b] | 100 to 1000 nM | +++ (+++ indicate a value of at least 100) | < 10 nM | < 10 nM
CNC(=O)c1ncc(N2CCC(N3CCC(c4cc5ccc(F)cc5c(=O)[nH]4)C3)CC2)c(C(F)(F)F)n1 (single isomer, unassigned) [Compound 266a] | 100 to 1000 nM | +++ (+++ indicate a value of at least 100) | < 10 nM | < 10 nM
CNC(=O)c1ncc(N2CCC(N3CCC(c4cc5ccc(F)cc5c(=O)[nH]4)C3)CC2)c(C(F)(F)F)n1 (single isomer, unassigned) [Compound 266b] | > 10000 nM | +++ (+++ indicate a value of at least 100) | 10 to 100 nM | 10 to 100 nM
CNC(=O)c1ccc(N2CCC(N3CCC(c4nc5[nH]nc(C(F)(F)F)c5c(=O)[nH]4)C3)CC2)c(F)n1 (single isomer, unassigned) [Compound 267a] | 100 to 1000 nM | + (+ indicates a value of 10 to less than 50) | 10 to 100 nM | 10 to 100 nM

SMILES | Kd [1] | Selectivity [2] | Kd [2] | IC50 [3]
CNC(=O)c1ccc(N2CCC(N3CCC(c4nc5[nH]nc(C(F)(F)F)c5c(=O)[nH]4)C3)CC2)c(F)n1 (single isomer, unassigned) [Compound 267b] | 10 to 100 nM | +++ (+++ indicate a value of at least 100) | < 10 nM | < 10 nM
CCCc1ccc(C2CCN(C3CCN(c4ccc(C(=O)NC)nc4F)CC3)C2)[nH]c1=O (single isomer, unassigned) [Compound 269a] | 1000 to 10000 nM | +++ (+++ indicate a value of at least 100) | < 10 nM | < 10 nM
CCCc1ccc(C2CCN(C3CCN(c4ccc(C(=O)NC)nc4F)CC3)C2)[nH]c1=O (single isomer, unassigned) [Compound 269b] | > 10000 nM | + (+ indicates a value of 10 to less than 50) | 100 to 1000 nM | 100 to 1000 nM
CNC(=O)c1ccc(N2CCC(N3CCC(c4cc5ccc(F)cc5c(=O)[nH]4)C3)CC2)cc1F (single isomer, unassigned) [Compound 270a] | 10 to 100 nM | − (− indicates a value of less than 10) | 10 to 100 nM | 10 to 100 nM
CNC(=O)c1ccc(N2CCC(N3CCC(c4cc5ccc(F)cc5c(=O)[nH]4)C3)CC2)cc1F (single isomer, unassigned) [Compound 270b] | 10 to 100 nM | + (+ indicates a value of 10 to less than 50) | < 10 nM | < 10 nM
CNC(=O)c1ccc(N2CCC(N3CCC(c4nc5c(c(=O)[nH]4)COC5)C3)CC2)cn1 (single isomer, unassigned) [Compound 272a] | > 10000 nM | − (− indicates a value of less than 10) | > 10000 nM | > 10000 nM
CNC(=O)c1ccc(N2CCC(N3CCC(c4nc5c(c(=O)[nH]4)COC5)C3)CC2)cn1 (single isomer, unassigned) [Compound 272b] | > 10000 nM | + (+ indicates a value of 10 to less than 50) | 100 to 1000 nM | 100 to 1000 nM
CC(=O)Nc1ccc(N2CCC(N3CCC(c4cc5ccccc5c(=O)[nH]4)C3)CC2)c(Cl)c1 (single isomer, unassigned) [Compound 273a] | 1000 to 10000 nM | − (− indicates a value of less than 10) | 100 to 1000 nM | 100 to 1000 nM
CNC(=O)c1csc(N2CCC(N3CCC(c4cc5ccccc5c(=O)[nH]4)C3)CC2)n1 (single isomer, unassigned) [Compound 274a] | 1000 to 10000 nM | − (− indicates a value of less than 10) | 100 to 1000 nM | 100 to 1000 nM
CNC(=O)c1ncc(N2CCC(N3CCC(c4cc5cccc(F)c5c(=O)[nH]4)C3)CC2)c(C(F)(F)F)n1 (single isomer, unassigned) [Compound 277a] | 1000 to 10000 nM | +++ (+++ indicate a value of at least 100) | < 10 nM | < 10 nM
CNC(=O)c1ncc(N2CCC(N3CCC(c4cc5cccc(F)c5c(=O)[nH]4)C3)CC2)c(C(F)(F)F)n1 (single isomer, unassigned) [Compound 277b] | > 10000 nM | ++ (++ indicates a value of 50 to less than 100) | 10 to 100 nM | 10 to 100 nM
CNC(=O)c1ccc(N2CCC(N3CCC(c4cnc(C(F)(F)F)c(=O)[nH]4)C3)CC2)cn1 (single isomer, unassigned) [Compound 279a] | > 10000 nM | + (+ indicates a value of 10 to less than 50) | 100 to 1000 nM | 100 to 1000 nM
CNC(=O)c1ccc(N2CCC(N3CCC(c4cnc(C(F)(F)F)c(=O)[nH]4)C3)CC2)cn1 (single isomer, unassigned) [Compound 279b] | > 10000 nM | − (− indicates a value of less than 10) | 1000 to 10000 nM | 1000 to 10000 nM
CNC(=O)c1ccc(N2CCC(N3CCC(c4cc5[nH]nc(C(F)(F)F)c5c(=O)[nH]4)C3)CC2)c(F)n1 (single isomer, unassigned) [Compound 280a] | 1000 to 10000 nM | ++ (++ indicates a value of 50 to less than 100) | 10 to 100 nM | 10 to 100 nM
CNC(=O)c1ccc(N2CCC(N3CCC(c4cc5[nH]nc(C(F)(F)F)c5c(=O)[nH]4)C3)CC2)c(F)n1 (single isomer, unassigned) [Compound 280b] | 10 to 100 nM | ++ (++ indicates a value of 50 to less than 100) | < 10 nM | < 10 nM
CNC(=O)c1ccc(N2CCC(N3CCC(c4cc5cccc(F)c5c(=O)[nH]4)C3)CC2)cc1F (single isomer, unassigned) [Compound 281a] | 10 to 100 nM | + (+ indicates a value of 10 to less than 50) | < 10 nM | < 10 nM
